Legend:
KRas^G12R = molecular target: T1, KRas^G12R (Homo sapiens, UniProt P01116, G12R); test: KRas binding assay (TR-FRET tracer displacement), KRas G12R
T1 construct: Biotinylated KRas (corresponding to amino acids 1-169, produced at Accelegan Inc.); biotin (biotinylated); purchased Accelegan Inc

KRas^G12V = molecular target: T2, KRas^G12V (Homo sapiens, UniProt P01116, G12V); test: KRas binding assay (TR-FRET tracer displacement), KRas G12V
T2 construct: Biotinylated KRas (corresponding to amino acids 1-169, produced at Accelegan Inc.); biotin (biotinylated); purchased Accelegan Inc

[1] = system: KRas-mediated phosphorylation of ERK in PSN1 cells; test: Inhibition of KRas-mediated phosphorylation of ERK (Cisbio HTRF pERK), PSN1 cells; type: cell-based; conditions: Homo sapiens
Procedure: (§1) Inhibition of KRas Phosphorylation of ERK (HTRF) by Exemplary Compounds of Formula (I)
(§2) Cisbio HTRF Advanced PERK Assay Catalog #64AERPEH
(§3) Day 1: Seed 6,000 cells/well-25 μl/well in 384-well white solid bottom plate; RPM1_10% FBS. Incubate overnight at 37° C./5% CO2.
(§4) Incubate for 4 hours at room temperature covered.
(§5) Read HTRF using ClarioStar

[2] = system: KRas-mediated phosphorylation of ERK in H727 cells; test: Inhibition of KRas-mediated phosphorylation of ERK (Cisbio HTRF pERK), H727 cells; type: cell-based; conditions: Homo sapiens, NCI-H727, H727 cells; HTRF pERK
Summary of the method: (§6)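 Following a 3-hr exposure of cells to serially diluted compound (from 10 uM, 3-fold, 10 doses), cold lysis for 40 mins preceded a 2-hr room-temperature HTRF immunoassay for phosphorylated ERK.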

KRas^G12D = molecular target: T3, KRas^G12D (Homo sapiens, UniProt P01116, G12D); test: KRas binding assay (TR-FRET tracer displacement), KRas G12D
T3 construct: Biotinylated KRas (corresponding to amino acids 1-169, produced at Accelegan Inc.); biotin (biotinylated); purchased Accelegan Inc

[3] = system: KRas-mediated phosphorylation of ERK in MKN1 cells; test: Inhibition of KRas-mediated phosphorylation of ERK (Cisbio HTRF pERK), MKN1 cells; type: cell-based; conditions: Homo sapiens, MKN-1
Procedure: as §1, §2, §3, §4, §5

[4] = system: KRas-mediated phosphorylation of ERK in AsPC-1 cells; test: Inhibition of KRas-mediated phosphorylation of ERK (Cisbio HTRF pERK), AsPC-1 cells; type: cell-based; conditions: Homo sapiens, ASPC1, AsPC-1 cells; HTRF pERK
Summary of the method: as §6

T1 sequence (P01116 1-169 isoform P01116-2 G12R): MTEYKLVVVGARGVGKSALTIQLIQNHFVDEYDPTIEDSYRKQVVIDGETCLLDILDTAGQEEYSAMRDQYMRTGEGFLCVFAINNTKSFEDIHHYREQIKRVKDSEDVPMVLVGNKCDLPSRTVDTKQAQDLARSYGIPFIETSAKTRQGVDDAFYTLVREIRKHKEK
T3 sequence (P01116 1-169 isoform P01116-2 G12D): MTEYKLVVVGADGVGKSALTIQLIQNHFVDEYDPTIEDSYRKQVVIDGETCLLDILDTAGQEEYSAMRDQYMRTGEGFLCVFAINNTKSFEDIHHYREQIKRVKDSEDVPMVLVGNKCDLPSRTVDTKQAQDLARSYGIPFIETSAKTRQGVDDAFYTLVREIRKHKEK
T2 sequence (P01116 1-169 isoform P01116-2 G12V): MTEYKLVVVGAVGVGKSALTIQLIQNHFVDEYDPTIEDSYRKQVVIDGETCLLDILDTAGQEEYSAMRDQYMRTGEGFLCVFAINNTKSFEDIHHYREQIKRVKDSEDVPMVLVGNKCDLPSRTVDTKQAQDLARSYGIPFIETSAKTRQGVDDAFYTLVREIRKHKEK

For `CCc1c(F)ccc2cc(O)cc(-c3ncc4c(NCc5cc(C(=O)N(C)C)nn5C5COC5)nc(OC[C@@]56CCCN5C[C@H](F)C6)nc4c3F)c12` [Example 810, 5-(((7-(8-ethyl-7-fluoro-3-hydroxynaphthalen-1-yl)-8-fluoro-2-(((2R,7aS)-2-fluorotetrahydro-1H-pyrrolizin-7a(5H)-yl)methoxy)pyrido[4,3-d]pyrimidin-4-yl)amino)methyl)-N,N-dimethyl-1-(oxetan-3-yl)-1H-pyrazole-3-carboxamide], the IC50 (KRas^G12R) was 4 nM, the IC50 (KRas^G12V) was 4 nM and the IC50 [1] was > 10000 nM. The IC50 [2] was 4980 nM, the IC50 (KRas^G12D) was 13 nM and the IC50 [3] was 110 nM. The IC50 [4] was > 10000 nM.

In the case of `CCc1c(F)ccc2cc(O)cc(-c3ncc4c(N5C[C@H]6C[C@@H](C5)[C@H](O)[C@H]6O)nc(OC[C@@]56CCCN5C[C@H](F)C6)nc4c3F)c12` (single isomer, unassigned) [Example 569], the IC50 (KRas^G12R) is reported as < 2 nM, the IC50 (KRas^G12V) is reported as < 2 nM and the IC50 [1] is reported as > 10000 nM. For the same compound, the IC50 [2] was 444 nM, the IC50 (KRas^G12D) was 5 nM and the IC50 [3] was 69 nM. For the same compound, the IC50 [4] was 5110 nM.

For `CCc1c(F)ccc2cc(O)cc(-c3ncc4c(N5CCC[C@@]6(CC[S@+]([O-])C6)C5)nc(OC[C@@]56CCCN5C[C@H](F)C6)nc4c3F)c12` (single isomer, unassigned) [Example 624], the IC50 (KRas^G12R) was 41 nM, the IC50 (KRas^G12V) was 17 nM and the IC50 [1] was > 10000 nM. For the same compound, the IC50 [2] was 3990 nM, the IC50 (KRas^G12D) was 19 nM and the IC50 [3] was 834 nM. It also gave an IC50 [4] of 4030 nM.

With `CCc1c(F)ccc2cc(O)c(F)c(-c3ncc4c(N5C[C@@H]6C[C@H](C5)[C@H](O)C6)nc(OC[C@@]56CCCN5C[C@H](F)C6)nc4c3F)c12` [Example 811, (1R,5R,6R)-3-(7-(8-ethyl-2,7-difluoro-3-hydroxynaphthalen-1-yl)-8-fluoro-2-(((2R,7aS)-2-fluorotetrahydro-1H-pyrrolizin-7a(5H)-yl)methoxy)pyrido[4,3-d]pyrimidin-4-yl)-3-azabicyclo[3.2.1]octan-6-ol] the IC50 (KRas^G12R) was 4 nM, the IC50 (KRas^G12V) was 2 nM and the IC50 [1] was 5670 nM. The IC50 [2] was 68 nM, the IC50 (KRas^G12D) was 8 nM and the IC50 [3] was 37 nM. The IC50 [4] was 149 nM.

With `CCc1c(F)ccc2cc(O)cc(-c3ncc4c(N5CC6CCC(CC6)C5)nc(OC[C@@]56CCCN5C[C@H](F)C6)nc4c3F)c12` [Example 844, 4-(4-(3-azabicyclo[3.2.2]nonan-3-yl)-8-fluoro-2-(((2R,7aS)-2-fluorotetrahydro-1H-pyrrolizin-7a(5H)-yl)methoxy)pyrido[4,3-d]pyrimidin-7-yl)-5-ethyl-6-fluoronaphthalen-2-ol] the IC50 (KRas^G12R) was 46 nM, the IC50 (KRas^G12V) was 35 nM and the IC50 [1] was > 10000 nM. For the same compound, the IC50 [2] was 2900 nM, the IC50 (KRas^G12D) was 103 nM and the IC50 [3] was 198 nM. It also gave an IC50 [4] of 3330 nM.

For `CCc1c(F)ccc2cc(O)cc(-c3ncc4c(N5CCC[C@@](C)(O)C5)nc(OC[C@@]56CCCN5C[C@H](F)CC6)nc4c3F)c12` [Example 815, (R)-1-(7-(8-ethyl-7-fluoro-3-hydroxynaphthalen-1-yl)-8-fluoro-2-(((6R,8aS)-6-fluorohexahydroindolizin-8a (1H)-yl)methoxy)pyrido[4,3-d]pyrimidin-4-yl)-3-methylpiperidin-3-ol], the IC50 (KRas^G12R) was 4 nM, the IC50 (KRas^G12V) was < 2 nM and the IC50 [1] was 2290 nM. It also gave an IC50 [2] of 28 nM, an IC50 (KRas^G12D) of 2 nM and an IC50 [3] of 22 nM. It also gave an IC50 [4] of 32 nM.

`CCc1c(F)ccc2cc(O)cc(-c3ncc4c(N[C@H](C)c5cc(C(=O)N(C)C)nn5C)nc(OC[C@@]56CCCN5C[C@H](F)C6)nc4c3F)c12` [Example 651, 5-((R)-1-((7-(8-ethyl-7-fluoro-3-hydroxynaphthalen-1-yl)-8-fluoro-2-(((2R,7aS)-2-fluorohexahydro-1H-pyrrolizin-7a-yl)methoxy)pyrido[4,3-d]pyrimidin-4-yl)amino)ethyl)-N,N,1-trimethyl-1H-pyrazole-3-carboxamide] was tested, and the IC50 (KRas^G12R) was 15 nM, the IC50 (KRas^G12V) was 10 nM and the IC50 [1] was > 10000 nM. It also gave an IC50 [2] of 1790 nM, an IC50 (KRas^G12D) of 30 nM and an IC50 [3] of 546 nM. It also gave an IC50 [4] of 1460 nM.
